From patent publication US20250304537A1 (Repare Therapeutics Inc., priority 2022, published 2025)
Where two headings read alike, the source gives them in different places.

Assays:
[1] = molecular target: recombinant human Myt1 (full length PKMYT1) (Homo sapiens (Human), UniProt Q99640); assay: Recombinant human Myt1 kinase assay (ADP-Glo); type: biochemical; settings: 10 μM ATP
Procedure, shortened: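 Full-length insect-cell-expressed human Myt1 (18 nM final) was preincubated with compound (0.5% DMSO) for 15 min at 22 °C. The reaction ran with 10 μM ATP for 60 min at 30 °C in HEPES buffer with Mg2+/Mn2+ and DTT. ADP formed was read by ADP-Glo luminescence, giving IC50 and % max inhibition.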

[2] = tested on: PKMYT1 (CDK1 pThr14) in FUOV1 cells; assay: PKMYT1 cell-based activity assay, CDK1 pThr14 AlphaLISA in FUOV1 cells; settings: read-out: FUOV-1 CDK1 pThr14 IC50
Procedure, shortened: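 FUOV1 cells were treated with PKMYT1 inhibitor for 2 h at 37 °C, then lysed. CDK1 pThr14 was measured by AlphaLISA, pairing an anti-pThr14 antibody with an anti-total CDK1 antibody (5 nM each). Signal read at 680/615 nm and used to derive IC50.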

Sequence of recombinant human Myt1 (full length PKMYT1) (Q99640 whole entry): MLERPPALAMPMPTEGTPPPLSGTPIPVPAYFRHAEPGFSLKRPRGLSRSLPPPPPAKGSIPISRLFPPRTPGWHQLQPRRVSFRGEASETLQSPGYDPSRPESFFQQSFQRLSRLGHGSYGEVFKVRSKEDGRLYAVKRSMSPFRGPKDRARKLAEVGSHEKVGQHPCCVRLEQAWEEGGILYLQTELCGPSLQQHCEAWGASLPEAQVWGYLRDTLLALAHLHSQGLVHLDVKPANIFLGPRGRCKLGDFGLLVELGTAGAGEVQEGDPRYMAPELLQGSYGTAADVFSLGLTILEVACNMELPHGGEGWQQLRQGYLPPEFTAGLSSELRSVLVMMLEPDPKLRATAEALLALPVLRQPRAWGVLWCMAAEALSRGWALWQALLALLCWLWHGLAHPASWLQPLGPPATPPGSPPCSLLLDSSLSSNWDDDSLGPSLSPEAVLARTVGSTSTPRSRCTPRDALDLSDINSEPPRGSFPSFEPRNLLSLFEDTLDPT

IC50 [1] | IC50 ([2]; 2 h, 2 h incubation) | IC50 ([2]; 2 h, 2 h compound incubation) | IC50 ([2]; 2 h incubation) | IC50 ([2]; 2 h, 2 hours with compound) | Structure (SMILES)
12 nM |  | 214 nM |  |  | Cc1ccc2[nH]ncc2c1-c1nc(-c2ccc(F)cc2Nc2cc(C#N)ccn2)nc(C(N)=O)c1N [Compound 612]
3 nM |  | 26 nM |  |  | Cc1ccc(O)c(C)c1-c1nc(-c2ccccc2NC(=O)C2(C)CC2)cc(C(N)=O)c1N [Compound 428]
5 nM | 56 nM |  |  |  | COC(COc1nccc(-c2cc(-c3c(C)ccc4[nH]ncc34)c(N)c(C(N)=O)n2)n1)C1CC1 (stereo not drawn) [Compound 391]
4 nM |  | 23 nM |  |  | Cc1ccc2[nH]ncc2c1-c1nc(-c2ccccc2NS(C)(=O)=O)nc(C(N)=O)c1N [Compound 427, 5-amino-6-(5-methyl-1H-indazol-4-yl)-2-(2-(methylsulfonamido)phenyl)pyrimidine-4-carboxamide]
18 nM |  | 1230 nM |  |  | Cc1ccc2[nH]ncc2c1-c1nc(-c2cc(F)c(F)cc2NC(=O)C2(C(F)(F)F)CCC2)nc(C(N)=O)c1N [Compound 470]
176 nM |  |  |  | > 10000 nM | Cc1ccc2[nH]ncc2c1-c1nc(-c2cccnc2Nc2ccnn2C2CC2)nc(C(N)=O)c1N [Compound 885]
2 nM |  |  |  | 216 nM | Cc1ccc2[nH]ncc2c1-c1nc(-c2cccnc2N[C@@H](c2cccnc2)C(F)F)nc(C(N)=O)c1N [Compound 937]
4 nM |  | 40 nM |  |  | Cc1ccc2[nH]ncc2c1-c1nc(-c2cc(F)ccc2NCC(F)F)nc(C(N)=O)c1N [Compound 421]
4 nM |  |  |  | 195 nM | Cc1cc(F)c2[nH]ncc2c1-c1nc(-c2cn(C)nc2NC2CCOCC2)nc(C(N)=O)c1N [Compound 903, 5-amino-6-(7-fluoro-5-methyl-1H-indazol-4-yl)-2-(1-methyl-3-((tetrahydro-2H-pyran-4-yl)amino)-1H-pyrazol-4-yl)pyrimidine-4-carboxamide]
7 nM |  | 28 nM |  |  | Cc1ccc2[nH]ncc2c1-c1nc(-c2ccccc2NC(=O)C(C)(C)C)cc(C(N)=O)c1N [Compound 398]
5 nM |  | 4 nM |  |  | Cc1ccc2[nH]ncc2c1-c1nc(-c2ccccc2NC(=O)C2(C)CC2)nc(C(N)=O)c1N [Compound 401]
8 nM |  | 5 nM |  |  | Cc1ccc2[nH]ncc2c1-c1nc(-c2ccccc2NC(=O)[C@@]2(C)CCCN2)nc(C(N)=O)c1N [Compound 431]
8 nM |  | 121 nM |  |  | Cc1ccc2[nH]ncc2c1-c1nc(-c2ccccc2Nc2ccc(F)cn2)nc(C(N)=O)c1N [Compound 450]
2520 nM |  |  |  | > 10000 nM | CNS(=O)(=O)c1ccccc1-c1nc(C(N)=O)c(N)c(-c2c(C)ccc3[nH]ncc23)n1 [Compound 795]
5 nM |  | 105 nM |  |  | COC1(C(=O)Nc2ccccc2-c2nc(C(N)=O)c(N)c(-c3c(C)ccc4[nH]ncc34)n2)CC1 [Compound 432]
4 nM |  | 33 nM |  |  | CCNc1ccccc1-c1nc(C(N)=O)c(N)c(-c2c(C)ccc3[nH]ncc23)n1 [Compound 442]

The next lines start with the compound.

Structure (SMILES) | IC50 [1] | IC50 ([2]; 2 h, 2 h incubation) | IC50 ([2]; 2 h, 2 h compound incubation) | IC50 ([2]; 2 h incubation) | IC50 ([2]; 2 h, 2 hours with compound)
Cc1ccc2[nH]ncc2c1-c1cc(-c2cncs2)nc(C(N)=O)c1N [Compound 85] | 22 nM | 1450 nM |  |  | 
Cc1ccc2[nH]ncc2c1-c1cc(-c2cccc(OCc3cnccn3)n2)nc(C(N)=O)c1N [Compound 250] | 8 nM | 752 nM |  |  | 
Cc1ccc(O)c(C)c1-c1cc(-c2ccnnc2)cc(C(N)=O)c1N [Compound 93] | 25 nM | 937 nM |  |  | 
Cc1cccc(-c2cc(-c3c(C)ccc(O)c3C)c(N)c(C(N)=O)n2)n1 [Compound 91] | 3 nM |  |  | 113 nM | 
COC(C)COc1nccc(-c2cc(-c3c(C)ccc4[nH]ncc34)c(N)c(C(N)=O)n2)n1 (stereo not drawn) [Compound 303] | 7 nM | 155 nM |  |  | 
Cc1ccc2[nH]ncc2c1-c1cc(-c2cccc(OCc3ccncn3)n2)nc(C(N)=O)c1N [Compound 244] | 11 nM | 193 nM |  |  | 
Cc1ccc2[nH]ncc2c1-c1cc(-c2cccc(OC[C@H](N)c3ccccc3)n2)nc(C(N)=O)c1N (atropisomer, axis not shown) [Compound 338] | 165 nM |  |  | 284 nM | 
CNCCOc1nccc(-c2cc(-c3c(C)ccc4[nH]ncc34)c(N)c(C(N)=O)n2)n1 [Compound 210] | 10 nM | 335 nM |  |  | 
Cc1ccc2[nH]ncc2c1-c1nc(-c2nccs2)nc(C(N)=O)c1N [Compound 108] | 79 nM | 7400 nM |  |  | 
COC[C@@H](C)Oc1nccc(-c2cc(-c3c(C)ccc4[nH]ncc34)c(N)c(C(N)=O)n2)n1 [Compound 204] | 6 nM | 205 nM |  |  | 
CC(=O)Nc1ccccc1-c1nc(C(N)=O)c(N)c(-c2c(C)ccc3[nH]ncc23)n1 [Compound 320] | 6 nM | 19 nM |  |  | 
CC(=O)Nc1cccc(-c2cc(-c3c(C)ccc(O)c3C)c(N)c(C(N)=O)n2)c1 [Compound 49] | 6 nM | 137 nM |  |  | 
Cc1ccc2[nH]ncc2c1-c1cc(-c2cccnc2)nc(C(N)=O)c1N [Compound 107] | 11 nM | 495 nM |  |  | 
Cc1ccc2[nH]ncc2c1-c1cc(-c2ccnc(OCc3ccccn3)n2)nc(C(N)=O)c1N [Compound 229] | 4 nM | 134 nM |  |  | 
Cc1ccc2[nH]ncc2c1-c1cc(-c2cccc(OCc3ccccn3)n2)nc(C(N)=O)c1N [Compound 228] | 6 nM | 387 nM |  |  | 
COc1cc(C)cc(-c2nc(C(N)=O)c(N)c(-c3c(C)ccc4[nH]ncc34)n2)c1 [Compound 143] | 23 nM | 1470 nM |  |  | 
Cc1ccc2[nH]ncc2c1-c1cc(-c2ccnc(OC3CCOCC3)n2)nc(C(N)=O)c1N [Compound 169] | 8 nM | 120 nM |  |  | 
